Measurements from the supplement of paper PMC4862054.

Tests used:
Conditions in all cases: incubation time: 72 h
DU-4475 [1] = experiment: drug sensitivity score (DSS), CellTiter-Blue viability (DSS (AUC-based score)); higher = stronger viability inhibition; extreme values may be limits of the assay
Method: (§1)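 DSRT with the CellTiter-Blue (resazurin reduction) viability readout, fluorescence 560/590 nm, 72 h incubation. Plates were normalised to DMSO and benzethonium chloride controls. DSS is computed from the area under the fitted dose-response curve (5 or 9 concentrations).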

MDA-MB-436 [2] = experiment: as above
Method: as §1

MFM-223 = experiment: as above
Method: as §1

CAL-148 [3] = experiment: as above
Method: as §1

CAL-51 = experiment: as above
Method: as §1

BT-474 [4] = experiment: as above
Method: as §1

BT-549 [5] = experiment: as above
Method: as §1

SK-BR-3 [6] = experiment: as above
Method: as §1

DU-4475 [7] = experiment: normalised viability (% of control), CellTiter-Blue; higher = more viable cells (about 100 = DMSO control)
How it was run: (§2)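 Normalised viability is given for a single listed concentration of the series. In 384-well plates, breast cancer cell lines were incubated 72 h with compound, then read with CellTiter-Blue (2 h, 37 °C) at 560/590 nm. Per-plate scaling set vehicle to 100 and a positive kill control to 0, with Z'-factor quality control.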

MDA-MB-453 = experiment: as above
How it was run: as §2

MDA-MB-436 [8] = experiment: as above
How it was run: as §2

CAL-120 = experiment: as above
How it was run: as §2

CAL-148 [9] = experiment: as above
How it was run: as §2

HCC1143 = experiment: as above
How it was run: as §2

MDA-MB-231 = experiment: as above
How it was run: as §2

BT-474 [10] = experiment: as above
How it was run: as §2

BT-549 [11] = experiment: as above
How it was run: as §2

Hs578T = experiment: as above
How it was run: as §2

SK-BR-3 [12] = experiment: as above
How it was run: as §2

COc1cc([C@@H]2c3cc4c(cc3[C@@H](O[C@@H]3O[C@@H]5CO[C@@H](C)O[C@H]5[C@H](O)[C@H]3O)[C@H]3COC(=O)[C@H]23)OCO4)cc(OC)c1O [Etoposide]
Conditions	drug sensitivity score
BT-474 [4]	0.298
BT-549 [5]	11
CAL-51	14.5
CAL-148 [3]	10.3
DU-4475 [1]	19.8
MDA-MB-436 [2]	3.41
MFM-223	0
SK-BR-3 [6]	11.9

normalised viability [%]
Conditions	3 nM	10 nM	30 nM	100 nM	1000 nM	10000 nM
BT-474 [10]	–	116	–	–	96.4	87.3
BT-549 [11]	–	84.9	–	–	56	46.7
CAL-120	–	92.5	–	–	73.6	59.1
CAL-148 [9]	88.6	–	81	85.7	–	–
DU-4475 [7]	108	–	72.3	61.3	–	–
HCC1143	–	85.7	–	–	66.6	47.3
Hs578T	–	94.6	–	–	77.1	52.4
MDA-MB-231	–	121	–	–	82.7	66.1
MDA-MB-436 [8]	–	99.8	–	–	84.1	55.2
MDA-MB-453	109	–	107	99.8	–	–
SK-BR-3 [12]	–	98.2	–	–	46.5	12.9

NC(=O)Nc1cc(-c2cccc(F)c2)sc1C(=O)N[C@H]1CCCNC1 [AZD 7762]
Conditions	drug sensitivity score
BT-474 [4]	0
BT-549 [5]	1.54
CAL-51	2.84
CAL-148 [3]	2.2
DU-4475 [1]	2.46
MDA-MB-436 [2]	5.44
MFM-223	0
SK-BR-3 [6]	4.87

normalised viability [%]
Conditions	0.3 nM	1 nM	3 nM	10 nM	100 nM	1000 nM
BT-474 [10]	–	119	–	–	113	106
BT-549 [11]	–	114	–	–	118	35.5
CAL-120	–	118	–	–	101	26.5
CAL-148 [9]	110	–	106	111	–	–
DU-4475 [7]	99.3	–	109	100	–	–
HCC1143	–	120	–	–	109	34.8
Hs578T	–	106	–	–	90	27.3
MDA-MB-231	–	112	–	–	102	31.2
MDA-MB-436 [8]	–	99	–	–	83.7	18.5
MDA-MB-453	113	–	93.2	108	–	–
SK-BR-3 [12]	–	101	–	–	93.2	11.5

Cc1ccc(C(=O)Nc2ccc(CN3CCN(C)CC3)c(C(F)(F)F)c2)cc1C#Cc1cnc2cccnn12 [Ponatinib]
Conditions	drug sensitivity score
BT-474 [4]	0
BT-549 [5]	0.903
CAL-51	3.79
CAL-148 [3]	0.922
DU-4475 [1]	0
MDA-MB-436 [2]	0
MFM-223	14.6
SK-BR-3 [6]	0

Conditions	normalised viability [%]
BT-474 [10], 1 nM	102
BT-474 [10], 100 nM	110
BT-474 [10], 1000 nM	91.2
BT-549 [11], 1 nM	107
BT-549 [11], 100 nM	120
BT-549 [11], 1000 nM	49.3
CAL-120, 1 nM	95.3
CAL-120, 100 nM	85.4
CAL-120, 1000 nM	13.8
CAL-148 [9], 0.3 nM	96.8
CAL-148 [9], 3 nM	105
CAL-148 [9], 10 nM	110
DU-4475 [7], 0.3 nM	91.6
DU-4475 [7], 3 nM	91.7
DU-4475 [7], 10 nM	84.5
HCC1143, 100 nM	113
HCC1143, 1000 nM	98.8
Hs578T, 1 nM	105
Hs578T, 100 nM	110
Hs578T, 1000 nM	73.9
MDA-MB-231, 1 nM	98.8
MDA-MB-231, 100 nM	82.6
MDA-MB-231, 1000 nM	16.9
MDA-MB-436 [8], 1 nM	106
MDA-MB-436 [8], 100 nM	91.5
MDA-MB-436 [8], 1000 nM	90.5
MDA-MB-453, 0.3 nM	102
MDA-MB-453, 3 nM	101
MDA-MB-453, 10 nM	87.3
SK-BR-3 [12], 1 nM	104
SK-BR-3 [12], 100 nM	103
SK-BR-3 [12], 1000 nM	71.3

Oc1nc(-c2ccc(C(F)(F)F)cc2)nc2c1CSCC2 [XAV-939]
Conditions	drug sensitivity score
BT-474 [4]	0
BT-549 [5]	0
CAL-51	0
CAL-148 [3]	0
DU-4475 [1]	0
MDA-MB-436 [2]	0
MFM-223	0
SK-BR-3 [6]	0

normalised viability [%]
Conditions	3 nM	10 nM	30 nM	100 nM	1000 nM	10000 nM
BT-474 [10]	–	107	–	–	100	103
BT-549 [11]	–	91.3	–	–	94.5	101
CAL-120	–	90.6	–	–	92.8	105
CAL-148 [9]	89.3	–	90.4	94.3	–	–
DU-4475 [7]	117	–	101	121	–	–
HCC1143	–	80.4	–	–	81.9	80.9
Hs578T	–	90.8	–	–	82.3	85.5
MDA-MB-231	–	89.5	–	–	87.6	71.4
MDA-MB-436 [8]	–	122	–	–	116	113
MDA-MB-453	104	–	94.2	105	–	–
SK-BR-3 [12]	–	99.5	–	–	104	115

Cc1ccc(-n2nc(C(C)(C)C)cc2NC(=O)Nc2ccc(OCCN3CCOCC3)c3ccccc23)cc1 [Doramapimod]
Conditions	drug sensitivity score
BT-474 [4]	0
BT-549 [5]	0
CAL-51	0
CAL-148 [3]	0
DU-4475 [1]	0
MDA-MB-436 [2]	0
MFM-223	0
SK-BR-3 [6]	0

normalised viability [%]
Conditions	3 nM	10 nM	30 nM	100 nM	1000 nM	10000 nM
BT-474 [10]	–	101	–	–	101	96.9
BT-549 [11]	–	98.1	–	–	104	84.7
CAL-120	–	95.4	–	–	81.2	95.8
CAL-148 [9]	90	–	90.9	87.5	–	–
DU-4475 [7]	123	–	89.1	97.1	–	–
HCC1143	–	94.2	–	–	92.1	90.3
Hs578T	–	111	–	–	120	113
MDA-MB-231	–	99.2	–	–	99	109
MDA-MB-436 [8]	–	84.4	–	–	33.9	71.5
MDA-MB-453	109	–	105	106	–	–
SK-BR-3 [12]	–	91.1	–	–	98.2	97.1

CN(N=O)C(=O)N[C@@H](C=O)[C@@H](O)[C@H](O)[C@H](O)CO [Streptozocin]
Conditions	drug sensitivity score
BT-474 [4]	0
BT-549 [5]	0
CAL-51	0
CAL-148 [3]	0
DU-4475 [1]	0
MDA-MB-436 [2]	0
MFM-223	0
SK-BR-3 [6]	0

normalised viability [%]
Conditions	3 nM	10 nM	30 nM	100 nM	1000 nM	10000 nM
BT-474 [10]	–	125	–	–	98.6	135
BT-549 [11]	–	93	–	–	103	83.7
CAL-120	–	106	–	–	101	113
CAL-148 [9]	98.6	–	97.3	99.3	–	–
DU-4475 [7]	101	–	96.5	103	–	–
HCC1143	–	87.5	–	–	97.4	92.5
Hs578T	–	110	–	–	103	101
MDA-MB-231	–	101	–	–	138	110
MDA-MB-436 [8]	–	110	–	–	88.1	90.6
MDA-MB-453	116	–	89.4	93	–	–
SK-BR-3 [12]	–	101	–	–	110	126
